The text below walks through data of US10669290B2, “Beta-lactamase inhibitors” (priority 2012, dated 2020).

The term MIC denotes the lowest concentration found to suppress growth.

Type in all cases: cell-based
In test [1] the test system is E. coli ESBL4 CTX-M-15. The experiment in a line: Broth microdilution MIC, E. coli ESBL4. The settings on record: Escherichia coli, ESBL4CTXM15; fixed ceftazidime 4 μg/mL, CAMHB, 16-20 hours 37° C.; read-out: MIC of exemplary compounds in presence of fixed β-lactams, Fixed CAZ, E. coli ESBL4 CTX-M-15. From the text:
(§1) To determine the ability of test compounds to potentiate the inhibition of the growth of bacterial strains that produce beta-lactamase enzymes, classic cell based broth microdilution MIC assays were employed. Six bacteria strains producing beta-lactamase enzymes were used: E. coli expressing the Class A Extended Spectrum Beta-Lactamase (ESBL) CTX-M-15, E. cloacae expressing the Class C P99, K. pneumoniae expressing the Class A carbapenemase KPC-2, P. aeruginosa expressing the Class B carbapenemase VIM-2, K. pneumoniae expressing the class A carbapenemase KPC-2 and the class B carbapenemase VIM-4, and S. aureus producing the Class A penicillinase PC-1. The assay was conducted in Cation Adjusted Mueller Hinton Broth (CAMHB, BD #212322, BD Diagnostic Systems, Sparks, Md.). Bacteria strains were grown for 3-5 hours in CAMBH broth. Test compounds were added to a microtiter plate in 2-fold serial dilutions in CAMHB in a final concentration range of 32 μg/mL to 0.25 μg/ml. An overlay of CAMHB containing a Beta-lactam was added to the compounds at a final static concentration of 4 μg/ml. […] In addition to the titration of test compounds the MICs of a panel of control beta-lactams is also tested to ensure the strains are behaving consistently from test to test. Once the test compound and antibiotics are added the plates can be inoculated according to CLSI broth microdilution method. After inoculation the plates are incubated for 16-20 hours at 37° C. then the Minimal Inhibitory Concentration (MIC) of the test compound is determined visually.
(§2) Using the methodology described above in EXAMPLE III, exemplary compounds for Formula I or Formula Ia were evaluated for their ability to inhibit the growth of β-lactamase producing bacteria in the presence of a β-lactam antibiotic.
On the technique in general: Dilution methods test growth across graded concentrations, often in twofold steps.

Test [2] relates to E. cl 144200 p99 AmpC. Description: Broth microdilution MIC, E. cloacae 144200. The settings on record: Enterobacter cloacae; fixed ceftazidime 4 μg/mL, CAMHB, 16-20 hours 37° C.; read-out: MIC of exemplary compounds in presence of fixed β-lactams, Fixed CAZ, E. cl 144200 p99 AmpC.
Excerpt: as §1, §2

The test system of test [3] is K.P. 156319 KPC-3. Description: Broth microdilution MIC, K. pneumoniae 156319. As to conditions: Klebsiella pneumoniae; fixed meropenem 4 μg/mL, CAMHB, 16-20 hours 37° C.; read-out: MIC of exemplary compounds in presence of fixed β-lactams, Fixed Mero, K.P. 156319 KPC-3.
Test [4] has as its system P. aerug. Ps296 VIM-2. The experiment in a line: Broth microdilution MIC, P. aeruginosa Ps296. As to conditions: Pseudomonas aeruginosa; fixed meropenem 4 μg/mL, CAMHB, 16-20 hours 37° C.; read-out: MIC of exemplary compounds in presence of fixed β-lactams, Fixed Mero, P. aerug. Ps296 VIM-2.
Excerpt: as §1, §2

Test [5] concerns K.P. A-1797 KPC-2 VIM-4. The experiment in a line: Broth microdilution MIC, K. pneumoniae A-1797. As to conditions: Klebsiella pneumoniae; fixed meropenem 4 μg/mL, CAMHB, 16-20 hours 37° C.; read-out: MIC of exemplary compounds in presence of fixed β-lactams, Fixed Mero, K.P. A-1797 KPC-2 VIM-4.
Excerpt: as §1, §2

The test system of test [6] is S. aureus MSSA-7 PC-1. Description: Broth microdilution MIC, S. aureus MSSA-7. As to conditions: Staphylococcus aureus, fixed piperacillin 4 μg/mL, CAMHB, 16-20 hours 37° C., read-out: MIC of exemplary compounds in presence of fixed β-lactams, Fixed Pip, S. aureus MSSA-7 PC-1.
Excerpt: as §1, §2

Consider `N=C(N)N1CCC(CN[C@H]2CC[C@H](CC(=O)N[C@H]3Cc4cccc(C(=O)O)c4OB3O)CC2)CC1` [Example 34, (R)-3-(2-(trans-4-((1-carbamimidoylpiperidin-4-yl)methylamino)cyclohexyl)acetamido)-2-hydroxy-3,4-dihydro-2H-benzo[e][1,2]oxaborinine-8-carboxylic acid], for which the MIC in test [1] is under 4 µg/mL; in test [2], under 4 µg/mL; in test [3] it was under 4 µg/mL; in test [4], under 4 µg/mL; in test [5], 8 to 32 µg/mL; in test [6], under 4 µg/mL.
As for `N[C@H]1CC(CC(=O)N[C@H]2Cc3cccc(C(=O)O)c3OB2O)C[C@@H]1N` [Example 37], the MIC in test [1] is under 4 µg/mL; in test [2], under 4 µg/mL; in test [3] it was under 4 µg/mL; in test [4] it was under 4 µg/mL; in test [5], 8 to 32 µg/mL; in test [6], under 4 µg/mL.
In the case of `CC(NC(=O)C1C[C@H](N)[C@@H](N)C1)C(=O)N[C@H]1Cc2cccc(C(=O)O)c2OB1O` (stereo partly drawn) [Example 38], the MIC in test [1], in test [2], in test [3], in test [4], in test [5] and in test [6] was under 4 µg/mL throughout.
On to `O=C(C[C@H]1CC[C@H](NCc2nccs2)CC1)N[C@H]1Cc2cccc(C(=O)O)c2OB1O` [Example 39], for which the MIC is under 4 µg/mL in test [1]; under 4 µg/mL in test [2]; under 4 µg/mL in test [3]; 8 to 32 µg/mL in test [4]; 8 to 32 µg/mL in test [5]; under 4 µg/mL in test [6].
On to `O=C(CC1CCC(N2CCOCC2)CC1)N[C@H]1Cc2cccc(C(=O)O)c2OB1O` (stereo partly drawn) [Example 40, (R)-2-hydroxy-3-(2-(4-morpholinocyclohexyl)acetamido)-3,4-dihydro-2H-benzo[e][1,2]oxaborinine-8-carboxylic acid], for which the MIC is under 4 µg/mL in test [1]; under 4 µg/mL in test [2]; under 4 µg/mL in test [3]; over 32 µg/mL in test [4]; over 32 µg/mL in test [5]; under 4 µg/mL in test [6].
In the case of `N[C@@H](C(=O)N[C@H]1Cc2cccc(C(=O)O)c2OB1O)C1CCCCC1` [Example 42, (R)-3-((R)-2-amino-2-cyclohexylacetamido)-2-hydroxy-3,4-dihydro-2H-benzo[e][1,2]oxaborinine-8-carboxylic acid], the MIC is under 4 µg/mL in test [1]; under 4 µg/mL in test [2]; under 4 µg/mL in test [3]; under 4 µg/mL in test [4]; 8 to 32 µg/mL in test [5]; 8 to 32 µg/mL in test [6].
For `NCCNC1CCC(O)(CC(=O)N[C@H]2Cc3cccc(C(=O)O)c3OB2O)CC1` (stereo partly drawn) [Example 43, 3-{2-[4-(2-Amino-ethylamino)-1-hydroxy-cyclohexyl]-acetylamino}-2-hydroxy-3,4-dihydro-2H-benzo[e][1,2]oxaborinine-8-carboxylic acid], the MIC is under 4 µg/mL in test [1]; under 4 µg/mL in test [2]; under 4 µg/mL in test [3]; under 4 µg/mL in test [4]; over 32 µg/mL in test [5]; under 4 µg/mL in test [6].
For the compound `NC1CCC(O)(CC(=O)N[C@H]2Cc3cccc(C(=O)O)c3OB2O)CC1` (stereo partly drawn) [Example 44, 3-[2-(4-Amino-1-hydroxy-cyclohexyl)-acetylamino]-2-hydroxy-3,4-dihydro-2H-benzo[e][1,2]oxaborinine-8-carboxylic acid], the MIC in test [1] was under 4 µg/mL; in test [2], under 4 µg/mL; in test [3], under 4 µg/mL; in test [4], 8 to 32 µg/mL; in test [5] it was under 4 µg/mL; in test [6], 8 to 32 µg/mL.
For the compound `N[C@H]1CC[C@H](NCC(=O)N[C@H]2Cc3cccc(C(=O)O)c3OB2O)CC1` [Example 45, 3-[2-(4-Amino-cyclohexylamino)-acetylamino]-2-hydroxy-3,4-dihydro-2H-benzo[e][1,2]oxaborinine-8-carboxylic acid], the MIC in test [1] is under 4 µg/mL; in test [2], under 4 µg/mL; in test [3], under 4 µg/mL; in test [4] it was 8 to 32 µg/mL; in test [5], 8 to 32 µg/mL; in test [6], under 4 µg/mL.
Take `NCCN[C@H]1CC[C@@H](CC(=O)N[C@H]2Cc3cccc(C(=O)O)c3OB2O)CC1` [Example 46, (R)-3-(2-(cis-4-(2-aminoethylamino)cyclohexyl)acetamido)-2-hydroxy-3,4-dihydro-2H-benzo[e][1,2]oxaborinine-8-carboxylic acid]: the MIC in test [1], in test [2], in test [3], in test [4], in test [5] and in test [6] was under 4 µg/mL throughout.
Take `O=C(C[C@H]1CC[C@H](NCCNc2ccccn2)CC1)N[C@H]1Cc2cccc(C(=O)O)c2OB1O` [Example 48, (R)-2-hydroxy-3-(2-(trans-4-(2-(pyridin-2-ylamino)ethylamino)cyclohexyl)acetamido)-3,4-dihydro-2H-benzo[e][1,2]oxaborinine-8-carboxylic acid]: the MIC in test [1] was under 4 µg/mL; in test [2], under 4 µg/mL; in test [3], under 4 µg/mL; in test [4], 8 to 32 µg/mL; in test [5], 8 to 32 µg/mL; in test [6], under 4 µg/mL.
In the case of `CS(=O)(=O)NCCN[C@H]1CC[C@H](CC(=O)N[C@H]2Cc3cccc(C(=O)O)c3OB2O)CC1` [Example 49, (R)-2-hydroxy-3-(2-(trans-4-(2-(methylsulfonamido)ethylamino)cyclohexyl)acetamido)-3,4-dihydro-2H-benzo[e][1,2]oxaborinine-8-carboxylic acid], the MIC in test [1] is under 4 µg/mL; in test [2], under 4 µg/mL; in test [3], under 4 µg/mL; in test [4] it was 8 to 32 µg/mL; in test [5], 8 to 32 µg/mL; in test [6] it was under 4 µg/mL.
In the case of `NCCN[C@H]1CC[C@H](CC(=O)N[C@@H]2Cc3cccc(C(=O)O)c3OB2O)CC1` [Example 50, (S)-3-(2-(trans-4-(2-aminoethylamino)cyclohexyl)acetamido)-2-hydroxy-3,4-dihydro-2H-benzo[e][1,2]oxaborinine-8-carboxylic acid], the MIC in test [1] was under 4 µg/mL; in test [2] it was under 4 µg/mL; in test [3], over 32 µg/mL; in test [4], under 4 µg/mL; in test [5] it was 8 to 32 µg/mL; in test [6] it was under 4 µg/mL.
Regarding `CNCCN[C@H]1CC[C@H](CC(=O)N[C@H]2Cc3cccc(C(=O)O)c3OB2O)CC1` [Example 51, (R)-2-hydroxy-3-(2-(trans-4-(2-(methylamino)ethylamino)cyclohexyl)acetamido)-3,4-dihydro-2H-benzol[e][1,2]oxaborinine-8-carboxylic acid], the MIC in test [1], in test [2], in test [3], in test [4], in test [5] and in test [6] was under 4 µg/mL in each case.
Consider `CN1CCN([C@H]2CC[C@H](CC(=O)N[C@H]3Cc4cccc(C(=O)O)c4OB3O)CC2)C1=N` [Example 52, (R)-2-hydroxy-3-(2-(trans-4-(2-imino-3-methylimidazolidin-1-yl)cyclohexyl)acetamido)-3,4-dihydro-2H-benzo[e][1,2]oxaborinine-8-carboxylic acid], for which the MIC in test [1] is under 4 µg/mL; in test [2], under 4 µg/mL; in test [3] it was 8 to 32 µg/mL; in test [4], over 32 µg/mL; in test [5], over 32 µg/mL; in test [6] it was under 4 µg/mL.
For the compound `C[C@H](N)CN[C@H]1CC[C@H](CC(=O)N[C@H]2Cc3cccc(C(=O)O)c3OB2O)CC1` [Example 53, (R)-3-(2-(trans-4-((S)-2-aminopropylamino)cyclohexyl)acetamido)-2-hydroxy-3,4-dihydro-2H-benzo[e][1,2]oxaborinine-8-carboxylic acid], the MIC in test [1], in test [2], in test [3], in test [4], in test [5] and in test [6] was under 4 µg/mL throughout.
